{"source": "patent US11390580B2", "about": "“Anti-fungals targeting the synthesis of fungal shingolipids” (THE RESEARCH FOUNDATION FOR THE STATE UNIVERSITY OF NEW YORK, priority 2014, dated 2022)", "key": {"[1]": {"system": "intracellular C. neoformans", "assay": "Intracellular effect in J774.16 macrophages", "assay_type": "cell-based, Cryptococcus neoformans", "details": "dose-dependent, particularly after 12 and 24 hours", "description": "After 2 hours of incubation, about 60-80% of macrophages have at least one C. neoformans cell internalized. At this time, wells were washed to remove extracellular fungal cells and fresh DMEM medium without serum and without mAb 18B7 but containing different concentrations of BHBM was added. […] At selected time points, 0, 6, 12 and 24 hours, extracellular cells were collected by washing and plated onto YPD for CFU counting of extracellular cells. Then, macrophages containing C. neofromans were lysed, collected and serial dilutions were plated onto YPD for CFU counting of intracellular fungal cells."}, "[2]": {"system": "Sld8", "assay": "In vitro Sld8 activity", "assay_type": "biochemical, C. neoformans"}, "[3]": {"system": "Smt1", "assay": "In vitro Smt1 activity", "assay_type": "biochemical, C. neoformans"}, "[4]": {"system": "Candida albicans", "assay": "In vitro susceptibility testing (MIC)", "assay_type": "cell-based"}, "[5]": {"assay": "In vitro toxicity, MTT assay", "details": "mouse, J774.16 macrophage cells"}, "[6]": {"assay": "Pharmacokinetics of BHBM", "assay_type": "in vivo, mice", "details": "preliminary studies"}, "[7]": {"system": "Aspergillus fumigatus", "assay": "In vitro susceptibility testing (MIC)", "assay_type": "cell-based"}, "[8]": {"system": "Cryptococcus gattii", "assay": "In vitro susceptibility testing (MIC)", "assay_type": "cell-based"}, "[9]": {"system": "P. murina"}, "[10]": {"system": "Pneumocystis jiroveci", "assay": "In vitro testing by ATP content (luciferin-luciferase)", "details": "for inhibition at 0.1 µg/mL / inhibition at 1 µg/mL / inhibition at 10 µg/mL / inhibition at 100 µg/mL: read-out: percentage inhibition of ATP"}}, "note": "Several values for one entry are separate records, joined by “and”; a condition that tells them apart may be missing. Equal values may be shown once. Read-outs that look alike come from different tables or passages of the source.", "data": [{"smiles": "Cc1ccccc1C(=O)NN=Cc1ccc(O)c(Br)c1", "note": "[BHBM, N′-(3-bromo-4-hydroxybenzylidene)-2-methylbenzohydrazide]", "values": [{"measurement": "intracellular replication of C. neoformans", "setting": "[1]", "result": "significantly decrease the intracellular replication"}, {"measurement": "in vitro activity of Sld8", "setting": "[2]", "result": "does not inhibit"}, {"measurement": "in vitro activity of Smt1", "setting": "[3]", "result": "does not inhibit"}, {"measurement": "in vitro activity", "setting": "[4]", "result": "not active"}, {"measurement": "MIC range", "setting": "[4]; 3 Fungus Testing Lab strains", "result": ">32", "unit": "µg/mL"}, {"measurement": "MIC range", "setting": "[4]; 5 MDP Lab strains", "result": ">32", "unit": "µg/mL"}, {"measurement": "EC50 at 48 h", "setting": "[5]", "result": 50, "unit": "µg/mL"}, {"measurement": "tissue distribution, brain", "setting": "[6]", "result": "found in the brain tissue"}, {"measurement": "MIC range", "setting": "[7]; 1 MDP Lab strain", "result": 8, "unit": "µg/mL"}, {"measurement": "MIC range", "setting": "[7]; 3 Fungus Testing Lab strains", "result": ">16", "unit": "µg/mL"}, {"measurement": "MIC", "setting": "[7]; Aspergillus fumigatus, read-out: MIC (moderately active)", "result": "8 to 16", "unit": "µg/mL"}, {"measurement": "in vitro activity", "setting": "[8]", "result": "good in vitro activity"}, {"measurement": "MIC range", "setting": "[8]; 3 MDP Lab strains", "result": "0.5 to 1", "unit": "µg/mL"}, {"measurement": "MIC range", "setting": "[8]; 10 Fungus Testing Lab strains", "result": "0.5 to 2", "unit": "µg/mL"}, {"measurement": "BHBM 72 Hr 50%", "setting": "[8]; MIC, FTL strains", "result": "16 and >16 and 8"}, {"measurement": "improvement in survival, low dose vs vehicle treated negative controls", "setting": "[9]; 0.8 mg/Kg/twice a day, 13 days", "result": "the difference was not significant"}, {"measurement": "survival, low dose vs high dose", "setting": "[9]; 0.8 or 1.6 mg/Kg/twice a day, 13 days", "result": "low dose mice showed improved survival over the high dose mice"}, {"measurement": "number of asci and nuclei in lung homogenates vs negative control", "setting": "[9]; 13 days of treatment", "result": "No significant differences"}, {"measurement": "IC50", "setting": "[10]; 24 h, read-out: IC50, P. jiroveci", "result": 0.912, "unit": "µg/mL"}, {"measurement": "inhibition at 0.1 µg/mL", "setting": "[10]; 24 h", "result": 16.1, "unit": "%"}, {"measurement": "inhibition at 1 µg/mL", "setting": "[10]; 24 h", "result": 51.5, "unit": "%"}, {"measurement": "inhibition at 10 µg/mL", "setting": "[10]; 24 h", "result": 97, "unit": "%"}, {"measurement": "inhibition at 100 µg/mL", "setting": "[10]; 24 h", "result": 98.9, "unit": "%"}, {"measurement": "IC50", "setting": "[10]; 48 h, read-out: IC50, P. jiroveci", "result": 0.159, "unit": "µg/mL"}, {"measurement": "inhibition at 0.1 µg/mL", "setting": "[10]; 48 h", "result": 26.2, "unit": "%"}, {"measurement": "inhibition at 1 µg/mL", "setting": "[10]; 48 h", "result": 92.6, "unit": "%"}, {"measurement": "inhibition at 10 µg/mL", "setting": "[10]; 48 h", "result": 97.8, "unit": "%"}, {"measurement": "inhibition at 100 µg/mL", "setting": "[10]; 48 h", "result": 98.6, "unit": "%"}, {"measurement": "IC50", "setting": "[10]; 72 h, read-out: IC50, P. jiroveci", "result": 0.074, "unit": "µg/mL"}, {"measurement": "inhibition at 0.1 µg/mL", "setting": "[10]; 72 h", "result": 39.1, "unit": "%"}, {"measurement": "inhibition at 1 µg/mL", "setting": "[10]; 72 h", "result": 87.8, "unit": "%"}, {"measurement": "inhibition at 10 µg/mL", "setting": "[10]; 72 h", "result": 94.8, "unit": "%"}, {"measurement": "inhibition at 100 µg/mL", "setting": "[10]; 72 h", "result": 98.1, "unit": "%"}, {"measurement": "IC50", "setting": "[10]; 96 h, read-out: IC50, P. jiroveci", "result": 0.072, "unit": "µg/mL"}, {"measurement": "inhibition at 0.1 µg/mL", "setting": "[10]; 96 h", "result": 46.2, "unit": "%"}, {"measurement": "inhibition at 1 µg/mL", "setting": "[10]; 96 h", "result": 77, "unit": "%"}, {"measurement": "inhibition at 10 µg/mL", "setting": "[10]; 96 h", "result": 90.1, "unit": "%"}, {"measurement": "inhibition at 100 µg/mL", "setting": "[10]; 96 h", "result": 98.9, "unit": "%"}, {"measurement": "IC50", "setting": "[10]; read-out: activity class by IC50, P. jiroveci", "result": "0.011 to 0.099", "unit": "µg/mL"}]}]}
